According to patent US20230413820A1, “HERBICIDAL N-HETEROARYL PYRAZOLE COMPOUNDS” (SYNGENTA CROP PROTECTION AG, priority 2020, published 2023):

Key:
Type in all cases: in vivo
[1] = test system: Abutilon theophrasti (ABUTH); assay: Post-emergence herbicide glasshouse test; conditions: 250 g/ha, sprayed after 8 days cultivation, evaluated after 13 days
Method: (§1) Seeds of a variety of test species (Abutilon theophrasti (ABUTH), Amaranthus retoflexus (AMARE), Echinochloa crus-galli (ECHCG), Ipomoea hederacea (IPOHE), Setaria faberi (SETFA)) are sown in standard soil in pots. After cultivation for one day (pre-emergence) or after 8 days cultivation (post-emergence) under controlled conditions in a glasshouse (at 24/16° C., day/night; 14 hours light; 65% humidity), the plants are sprayed with an aqueous spray solution derived from the formulation of the technical active ingredient in acetone/water (50:50) solution containing 0.5% Tween 20 (polyoxyethelyene sorbitan monolaurate, CAS RN 9005-64-5). Compounds are applied at 250 g/ha unless otherwise stated. The test plants are then grown in a glasshouse under controlled conditions in a glasshouse (at 24/16° C., day/night; 14 hours light; 65% humidity) and watered twice daily. After 13 days for pre- and post-emergence, the test is evaluated for the percentage damage caused to the plant. The biological activities are shown in the following table on a five-point scale (5=81-100%; 4=61-80%; 3=41-60%; 2=21-40%; 1=0-20%).

Setaria faberi (SETFA) [2] = assay: Post-emergence herbicide glasshouse test; conditions: 250 g/ha, sprayed after 8 days cultivation, evaluated after 13 days
Method: as §1

[3] = test system: Ipomoea hederacea (IPOHE); assay: Post-emergence herbicide glasshouse test; conditions: 250 g/ha, sprayed after 8 days cultivation, evaluated after 13 days
Method: as §1

[4] = test system: Echinochloa crus-galli (ECHCG); assay: Post-emergence herbicide glasshouse test; conditions: 250 g/ha, sprayed after 8 days cultivation, evaluated after 13 days
Method: as §1

[5] = test system: Amaranthus retoflexus (AMARE); assay: Post-emergence herbicide glasshouse test; conditions: 250 g/ha, sprayed after 8 days cultivation, evaluated after 13 days
Method: as §1

[6] = test system: Abutilon theophrasti (ABUTH); assay: Pre-emergence herbicide glasshouse test; conditions: 250 g/ha, sprayed after one day cultivation, evaluated after 13 days
Method: as §1

Setaria faberi (SETFA) [7] = assay: Pre-emergence herbicide glasshouse test; conditions: 250 g/ha, sprayed after one day cultivation, evaluated after 13 days
Method: as §1

[8] = test system: Ipomoea hederacea (IPOHE); assay: Pre-emergence herbicide glasshouse test; conditions: 250 g/ha, sprayed after one day cultivation, evaluated after 13 days
Method: as §1

[9] = test system: Echinochloa crus-galli (ECHCG); assay: Pre-emergence herbicide glasshouse test; conditions: 250 g/ha, sprayed after one day cultivation, evaluated after 13 days
Method: as §1

[10] = test system: Amaranthus retoflexus (AMARE); assay: Pre-emergence herbicide glasshouse test; conditions: 250 g/ha, sprayed after one day cultivation, evaluated after 13 days
Method: as §1

| SMILES | percentage damage caused to the plant, ABUTH [1] | percentage damage caused to the plant, SETFA (Setaria faberi (SETFA) [2]) | percentage damage caused to the plant, IPOHE [3] | percentage damage caused to the plant, ECHCG [4] | percentage damage caused to the plant, AMARE [5] | percentage damage caused to the plant, ABUTH [6] | percentage damage caused to the plant, SETFA (Setaria faberi (SETFA) [7]) | percentage damage caused to the plant, IPOHE [8] | percentage damage caused to the plant, ECHCG [9] | percentage damage caused to the plant, AMARE [10] |
| --- | --- | --- | --- | --- | --- | --- | --- | --- | --- | --- |
| FC(F)Oc1cccc(Oc2cc(C(F)(F)F)nn2-c2ncc(Cl)cn2)n1 [Compound 1.002] | 5 (5=81-100%) | 5 (5=81-100%) | 4 (4=61-80%) | 5 (5=81-100%) | 5 (5=81-100%) | 4 (4=61-80%) | 5 (5=81-100%) | 3 (3=41-60%) | 5 (5=81-100%) | 5 (5=81-100%) |
| FC(F)c1cccc(Oc2cc(C(F)(F)F)nn2-c2ncc(Cl)cn2)n1 [Compound 1.003] | 3 (3=41-60%) | 4 (4=61-80%) | 4 (4=61-80%) | 4 (4=61-80%) | 5 (5=81-100%) | 1 (1=0-20%) | 2 (2=21-40%) | 2 (2=21-40%) | 4 (4=61-80%) | 5 (5=81-100%) |
| FC(F)(F)c1cccc(Oc2cc(C(F)(F)F)nn2-c2ncc(Cl)cn2)n1 [Compound 1.004] | 4 (4=61-80%) | 4 (4=61-80%) | 3 (3=41-60%) | 4 (4=61-80%) | 5 (5=81-100%) | 4 (4=61-80%) | 5 (5=81-100%) | 2 (2=21-40%) | 5 (5=81-100%) | 5 (5=81-100%) |
| Fc1cnc(-n2nc(C(F)(F)F)cc2Oc2cccc(OC(F)F)n2)nc1 [Compound 1.005, 2-[5-[[6-(difluoromethoxy)-2-pyridyl]oxy]-3-(trifluoromethyl)pyrazol-1-yl]-5-fluoro-pyrimidine] | 5 (5=81-100%) | 4 (4=61-80%) | 4 (4=61-80%) | 4 (4=61-80%) | 5 (5=81-100%) | 4 (4=61-80%) | 5 (5=81-100%) | 5 (5=81-100%) | 5 (5=81-100%) | 5 (5=81-100%) |
| COc1ccnc(-n2nc(C(F)(F)F)cc2Oc2cccc(OC(F)F)n2)n1 [Compound 1.026] | 1 (1=0-20%) | 1 (1=0-20%) | 1 (1=0-20%) | 1 (1=0-20%) | 3 (3=41-60%) | 2 (2=21-40%) | 1 (1=0-20%) | 1 (1=0-20%) | 1 (1=0-20%) | 4 (4=61-80%) |
